Drawing on patent publication US20260337253A1, “INHIBITION OF GUT BACTERIA” (priority 2025, published 2026), this text covers EC50 for one compound.

Non-standard residues stand in square brackets, D forms with d. Residues, ends and D or L forms follow the SMILES beside them. *: point of attachment. boroGlu = O=C(O)CC[C@H](N*)B(O)O; Gly(cPr) = N[C@H](C(=O)O)C1CC1

A word on the EC50: it is the concentration giving half of the maximal effect.

This experiment has as its target His6-CylA-27-412 (Enterococcus faecalis, UniProt A0A2P6AWB8). The experiment in a line: In vitro co-operative pore formation assay (pyranine-encapsulated DOPC liposomes, mCylLS:mCylLL). Type of experiment: biochemical.

Chain of His6-CylA-27-412 (A0A2P6AWB8 entry or part of it): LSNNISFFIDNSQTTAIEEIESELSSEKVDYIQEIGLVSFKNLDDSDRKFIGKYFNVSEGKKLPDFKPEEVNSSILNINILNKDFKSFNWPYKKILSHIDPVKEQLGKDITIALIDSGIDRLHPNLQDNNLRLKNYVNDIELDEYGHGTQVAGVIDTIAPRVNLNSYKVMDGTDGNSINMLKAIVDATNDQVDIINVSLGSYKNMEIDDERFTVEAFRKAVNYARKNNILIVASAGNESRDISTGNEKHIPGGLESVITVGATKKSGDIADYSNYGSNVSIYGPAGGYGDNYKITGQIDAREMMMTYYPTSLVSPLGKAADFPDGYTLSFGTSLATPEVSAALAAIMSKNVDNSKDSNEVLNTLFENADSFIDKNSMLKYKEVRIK
Text: In vitro pore formation assay for determining inhibitor effectiveness with high sensitivity. The assay uses pore formation as an indicator of toxin maturation. […] Pore formation dissipates a pH gradient between the interior of the liposome and the surrounding buffer increasing pyranine fluorescence.
Within the liposomes was a buffer of lower pH (6.0), and therefore any pore formation or membrane disruption would result in an increase in internal pH, which increases the fluorescence signal of the pyranine. In this way, pyranine fluorescence can be correlated to toxin activation allowing for the determination of EC50 values.
To a well in a black 96-well plate (200 μL) was added 90 μL high pH buffer (5 mM MES, 5 mM Tricine, 5 mM NaCl, pH 7.4) containing CylA (4 nM final concentration). After adding inhibitor, the mixture was incubated at room temperature for 10 min then freshly prepared (no more than 2 days old) pyranine encapsulated DOPC liposomes were added such that the total DOPC concentration was 80 μM. […] The resulting curves were max-min normalized yielding the fraction of permeabilized liposomes. […] This experiment was performed in duplicate or triplicate for each inhibitor at each concentration. […] Errors presented are those calculated by Origin 7 during the fitting process.

In turn, `CC(=O)NCC(=O)N[C@@H](CC(=O)O)C(=O)N[C@H](C(=O)N[C@@H](CCC(N)=O)C(=O)N[C@@H](C)C(=O)N[C@@H](CCC(=O)O)B(O)O)C1CC1` [Compound 9, Ac-Gly-Asp-Cpg-Gln-Ala-Glu-BA] (Ac-GD[Gly(cPr)]QA-boroGlu) returned an EC50 of 12.5 ± 1.4 nM.
